According to patent US11472758B2, “Methods for obtaining compounds from a plant or fungus material, respective compositions, and uses thereof” (Real Isolates, LLC, priority 2020, dated 2022):

Columns and labels:
CB1R [1] = target: T1, CB1R (Homo sapiens, UniProt P21554); set-up: host or cells: brain synaptosomal samples; COS-7 over-expression; settings: brain synaptosomal samples; COS-7 over-expression model; cited from earlier work
CB2R [2] = target: T2, CB2R (Homo sapiens, UniProt P34972); set-up: host or cells: brain synaptosomal samples; COS-7 over-expression; settings: brain synaptosomal samples; COS-7 over-expression model; cited from earlier work
15-lipoxygenase (15-LOX) = settings: has been shown; cited from earlier work
[3] = has been shown; cited from earlier work
CB1R [4] = settings: performed similarly to THC, but at a lower potency; cited from earlier work
CB1R [5] = target: T1, CB1R; settings: known; cited from earlier work
CB2R [6] = target: T2, CB2R; settings: known; cited from earlier work
mice = settings: cited from earlier work
[7] = test system: volunteer with severe Crohn's disease; assay: Human trial of HCD or MCD for Crohn's disease; format: in vivo
Excerpt: A volunteer with severe Crohn's disease and who has had over 50 hospital emergency visits since diagnosis in 2015. Treatment with multiple pharmaceutical agents were unsuccessful. They stopped using all pharmaceutical agents in 2018. In August 2020, they began using HCD and MCD. They were able to completely stop a Crohn's disease flare in November 2020 using two consecutive doses of MCD.

[8] = test system: volunteer with a developmental disorder; assay: Human trial of HCD or MCD for autism spectrum/schizophrenia spectrum disorder; format: in vivo
Excerpt: An assigned person at birth nonbinary volunteer with a history of a developmental disorder whose symptoms span both Autism Spectrum Disorder and Schizophrenia Spectrum Disorder. They stopped taking all psychopharmaceutical agents in 2010 after beginning to use medical Cannabis daily. Outside of 3 relapses due to over 14+ days without Cannabis, they have had no issues managing their symptoms since. Due to decreased symptoms, they are highly functional, fully independent, and no longer meet criteria for their previous diagnoses. In August 2020, they began using the HCD and MCD. They have not missed a single dose of HCD in 5 months; it is their longest span of completely continuous compliance.

[9] = test system: volunteer with severe, chronic migraines; assay: Human trial of HCD or MCD for chronic migraine; format: in vivo
volunteer with HNPP = assay: Human trial of HCD or MCD for hereditary neuropathy with liability to pressure palsy (HNPP); format: in vivo
Experimental: A volunteer has a rare genetic disorder, HNPP, resulting in neuropathic pain, muscle weakness, numbness, and loss of fine motor skills. The volunteer previously needed high doses (more than 5 g/day) of medical Cannabis to receive beneficial effects, but reduced overall intake when they began taking HCD and MCD. Their current dose schedule is 15-30 mg of HCD per day (˜7 mg-15 mg CBD) and MCD as needed. They are not taking any other medication.

[10] = smoking/inhalation at 575-600° F., 7 mg CBD isolate
[11] = smoking/inhalation at 575-600° F., 25 mg CBD isolate

T1 sequence (P21554 whole entry): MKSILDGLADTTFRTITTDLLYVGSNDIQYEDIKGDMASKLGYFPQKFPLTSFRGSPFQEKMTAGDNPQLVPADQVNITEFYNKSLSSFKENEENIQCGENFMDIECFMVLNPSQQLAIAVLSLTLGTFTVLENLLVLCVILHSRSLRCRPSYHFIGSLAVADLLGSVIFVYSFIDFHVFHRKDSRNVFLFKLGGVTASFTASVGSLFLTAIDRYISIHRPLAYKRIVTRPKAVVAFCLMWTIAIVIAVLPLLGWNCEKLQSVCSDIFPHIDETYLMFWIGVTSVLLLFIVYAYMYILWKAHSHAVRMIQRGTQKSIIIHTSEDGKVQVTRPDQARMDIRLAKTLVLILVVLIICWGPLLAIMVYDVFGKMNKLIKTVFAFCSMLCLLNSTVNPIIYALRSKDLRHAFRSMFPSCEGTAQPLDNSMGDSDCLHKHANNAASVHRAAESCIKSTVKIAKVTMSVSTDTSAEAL
T2 sequence (P34972 whole entry): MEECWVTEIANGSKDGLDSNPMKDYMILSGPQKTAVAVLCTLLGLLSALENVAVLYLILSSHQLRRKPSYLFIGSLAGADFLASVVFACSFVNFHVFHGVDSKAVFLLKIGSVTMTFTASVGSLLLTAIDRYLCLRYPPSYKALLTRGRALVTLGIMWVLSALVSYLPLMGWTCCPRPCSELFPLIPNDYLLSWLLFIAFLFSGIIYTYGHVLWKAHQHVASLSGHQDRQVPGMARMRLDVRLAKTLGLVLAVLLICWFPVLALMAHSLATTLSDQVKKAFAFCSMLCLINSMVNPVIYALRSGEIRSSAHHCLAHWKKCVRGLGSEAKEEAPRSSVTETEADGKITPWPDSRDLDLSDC

In the case of `CCCCCOc1cc(CCCCC)cc2c1-c1cc(C)ccc1C(C)(C)O2` [opeCBN, o-pentylcannabinol], the “Potency at CB1 receptor relative to CBN” value (CB1R [1]) is listed as “vastly increase its potency” and the “Potency at CB2 receptor relative to CBN” value (CB2R [2]) is listed as “vastly increase its potency”.

For `C=C(C)[C@@H]1CCC(C)=C[C@H]1c1c(O)cc(CCCCC)cc1OC` [omCBD, o-methylcannabidiol], the 15-LOX inhibition (15-lipoxygenase (15-LOX)) is given as “selective and potent”.

For `C=C1CC[C@@H]2[C@@H](C1)c1c(O)cc(CCCCC)cc1OC2(C)C` [exo-tetrahydrocannabinol], the Antibacterial activity [3] is listed as “potent antibacterial activity”, the “Activity in drug discrimination trials” value (CB1R [4]) is listed as “partial agonist activity” and the “Interaction with CB1R” value (CB1R [5]) is listed as “interact with CB1R”.

For `CCCCCc1cc(O)c2c(c1)OC(C)(C)[C@@H]1CCC(C)=C[C@@H]21` [THC, Δ9-tetrahydrocannabinol], the “Activity at CB2R” value (CB2R [6]) is listed as “partial agonist activity at nanomolar concentrations”.

In the case of `CCCCCc1cc(O)c2c(c1)OC(C)(C)C1CCC(C)C=C21` (centres unmarked) [Δ10-Tetrahydrocannabinol, Δ10-tetrahydrocannabinol], the “Interaction with CB1R” value (CB1R [5]) is given as “interact with CB1R”.

In the case of `CCCCCc1cc(OC)c2c(c1)OC(C)(C)c1ccc(C)cc1-2` [omCBN, o-methylcannabinol], the “Potency at CB1 receptor relative to CBN” value (CB1R [1]) is listed as “vastly increase its potency” and the “Potency at CB2 receptor relative to CBN” value (CB2R [2]) is listed as “vastly increase its potency”.

For `CCCCCc1cc(O)c2c(c1)OC(C)(C)c1ccc(C)cc1-2` [CBN, cannabinol], the Pentobarbital-induced sleeping time (mice) is given as “double”.

For `C=C(C)[C@@H]1CCC(C)=C[C@H]1c1c(O)cc(CCCCC)cc1O` [CBD, cannabidiol], the “Oral dose needed to achieve results similar to 15 mg HCD” value ([7]; commercially available CBD isolate, two or more consecutive days) was “over 50 mg”, the “Time at which effects began to wear off” value [7, 10] was 45 min and the “Time at which no noticeable effects remained” value [7, 10] was 60 min. For the same compound, the “Time of decreased pain, stress, and anxiety” value [7, 10] was 15 min, the “Activity at CB1R” value (CB1R [5]) was “neutral antagonist activity at nanomolar concentrations” and the “Activity at CB2R” value (CB2R [6]) was “neutral antagonist activity at nanomolar concentrations”. The “After effect observed the next day” value ([8]; 400-600 mg commercially available CBD isolate) was ““hangover””, the Negative side effects ([8]; doses of 50 mg/day of CBD) was “forgetfulness/brain fog, apathy, decreased endurance, decreased strength, interrupted sleep routine” and the “Dose used to abort panic attacks and/or break perseverative loops” value ([8]; oral, same efficacy) was 400 to 600 mg. The “Potency compared to orally ingested hemp Cannabis distillate (times less potent)” value ([8]; orally ingested, Example 20) was “at least 10 times”, the Effect on migraines ([9]; commercial CBD isolate 50 mg/day titrated up to 250 mg/day, after two months) was “marked decrease in the number and severity of migraines” and the “Oral dose needed to achieve results similar to 15 mg HCD” value ([9]; commercially available CBD isolate, anxiety, migraine threshold, migraine severity) was “over 200 mg”. The “Effect after oral administration” value (volunteer with HNPP; oral, 15-30 mg HCD or same dose of commercially available CBD isolate) was “no noticeable effect”, the “Time at which effects began to wear off” value (volunteer with HNPP; [11]) was 45 min and the “Time at which no noticeable effects remained” value (volunteer with HNPP; [11]) was 60 min. For the same compound, the “Time at which pain relief began” value (volunteer with HNPP; [11]) was 10 min.

In the case of `CCCCCc1cc(OCCC)c2c(c1)OC(C)(C)c1ccc(C)cc1-2` [oprCBN, o-propylcannabinol], the “Potency at CB1 receptor relative to CBN” value (CB1R [1]) is listed as “vastly increase its potency” and the “Potency at CB2 receptor relative to CBN” value (CB2R [2]) is listed as “vastly increase its potency”.
